Data reported in patent US20070128217A1 (priority 2003, published 2007).

Key:
[1] = system: rabbit serum obtained by immunizing a rabbit with the SARS-CoV strain Frankfurt 1; format: binding; design: Binding of a rabbit serum to linear peptides / Binding of a rabbit serum to looped peptides / Rabbit serum linear peptides / Rabbit serum looped peptides / Binding of a rabbit serum to linear peptides of protein N of SARS-CoV Urbani (Rabbit serum linear peptides) / Binding of a rabbit serum to looped/cyclic peptides of protein N of SARS-CoV Urbani (Rabbit serum looped peptides): unit not given here
[2] = system: antibodies in sera from SARS patients (sera 1a, 1b, 2, 6, 37, 62, London, SARS-yellow, SARS-green); format: binding, human; design: Binding of serum 6 to linear peptides of protein X1 of SARS-CoV Urbani / Binding of serum 37 to linear peptides of protein X1 of SARS-CoV Urbani / Binding of serum 6 to looped/cyclic peptide (PEPSCAN-ELISA) / Binding of serum 37 to looped/cyclic peptide (PEPSCAN-ELISA) / Binding of serum 37 to looped/cyclic peptides of protein X1 of SARS-CoV Urbani / Binding of serum 6 to linear peptides of protein X2 / Binding of serum 37 to linear peptides of protein X2 / Binding of serum 37 to looped/cyclic peptides of protein X2 of SARS-CoV Urbani / Binding of serum 6 to linear peptides of protein M of SARS-CoV Urbani / Binding of serum 37 to linear peptides of protein M of SARS-CoV Urbani / Binding of serum 6 to looped/cyclic peptides of protein M of SARS-CoV Urbani / Binding of serum 37 to looped/cyclic peptides of protein M of SARS-CoV Urbani / Binding of serum 6 to linear peptides of protein X3 of SARS-CoV Urbani / Binding of serum 37 to linear peptides of protein X3 of SARS-CoV Urbani / Binding of serum 37 to looped/cyclic peptides of protein X3 of SARS-CoV Urbani / Binding of serum 6 to linear peptides of protein X4 of SARS-CoV Urbani / Binding of serum 37 to linear peptides of protein X4 of SARS-CoV Urbani / Binding of serum 37 to looped/cyclic peptides of protein X4 of SARS-CoV Urbani / Binding of serum 6 to linear peptides of protein X5 of SARS-CoV Urbani / Binding of serum 37 to linear peptides of protein X5 of SARS-CoV Urbani / Binding of serum 37 to looped/cyclic peptides of protein X5 of SARS-CoV Urbani / Binding of serum 6 to linear peptides of protein N of SARS-CoV Urbani / Binding of serum 37 to linear peptides of protein N of SARS-CoV Urbani / Binding of serum 6 to linear peptide (PEPSCAN-ELISA) / Binding of serum 1a to looped/cyclic peptides of protein N of SARS-CoV Urbani / Binding of serum 1b to looped/cyclic peptides of protein N of SARS-CoV Urbani / Binding of serum 2 to looped/cyclic peptides of protein N of SARS-CoV Urbani / Binding of serum 6 to looped/cyclic peptides of protein N of SARS-CoV Urbani / Binding of serum 37 to looped/cyclic peptides of protein N of SARS-CoV Urbani / Binding of serum 62 to looped/cyclic peptides of protein N of SARS-CoV Urbani / Binding of serum London to looped/cyclic peptides of protein N of SARS-CoV Urbani / Binding of serum SARS-green to looped/cyclic peptides of protein N of SARS-CoV Urbani: unit not given here
[3] = system: control sera (pooled serum of ten healthy LUMC hospital workers; commercial negative donor pooled serum from the Dutch bloodbank); format: binding, human; design: Binding of Control serum LUMC to linear peptides / Binding of Control serum Blood-bank to linear peptides / Binding of Control serum LUMC to looped peptides / Binding of Control Serum Blood-Bank to Looped peptides / Binding of Control serum LUMC to linear peptides of the protein M of SARS-CoV Urbani / Binding of Control serum Blood-bank to linear peptides of the protein M of SARS-CoV Urbani / Binding of Control serum LUMC to looped peptides of the protein M of SARS-CoV Urbani / Binding of Control Serum Blood-Bank to Looped peptides of the protein M of SARS-CoV Urbani: unit not given here
[4] = system: recombinant human anti-SARS-CoV antibody 03-018; format: binding; design: Binding of antibody 03-018 to linear peptides of the N protein of SARS-CoV Urbani / Binding of antibody 03-018 to looped/cyclic peptides of the N protein of SARS-CoV Urbani: unit not given here

Row | Sequence | Binding of a rabbit serum to linear peptides of protein N of SARS-CoV Urbani (Rabbit serum linear peptides) [1] | Binding of a rabbit serum to looped/cyclic peptides of protein N of SARS-CoV Urbani (Rabbit serum looped peptides) [1] | Binding of serum 1a to linear peptides of protein N of SARS-CoV Urbani [2] | Binding of serum 1a to looped/cyclic peptides of protein N of SARS-CoV Urbani [2] | Binding of serum 1b to linear peptides of protein N of SARS-CoV Urbani [2] | Binding of serum 1b to looped/cyclic peptides of protein N of SARS-CoV Urbani [2] | Binding of serum 2 to linear peptides of protein N of SARS-CoV Urbani [2] | Binding of serum 2 to looped/cyclic peptides of protein N of SARS-CoV Urbani [2] | Binding of serum 6 to looped/cyclic peptides of protein N of SARS-CoV Urbani [2] | Binding of serum 37 to looped/cyclic peptides of protein N of SARS-CoV Urbani [2] | Binding of serum 62 to looped/cyclic peptides of protein N of SARS-CoV Urbani [2] | Binding of serum London to looped/cyclic peptides of protein N of SARS-CoV Urbani [2] | Binding of serum SARS-green to looped/cyclic peptides of protein N of SARS-CoV Urbani [2] | Binding of serum SARS-yellow to looped/cyclic peptides of protein N of SARS-CoV Urbani [2] | Binding of antibody 03-018 to linear peptides of the N protein of SARS-CoV Urbani [4] | Binding of antibody 03-018 to looped/cyclic peptides of the N protein of SARS-CoV Urbani [4] | Binding of Control Serum Blood-Bank to Looped peptides [3] | Binding of Control serum Blood-bank to linear peptides [3] | Binding of Control serum LUMC to linear peptides [3] | Binding of Control serum LUMC to looped peptides [3] | also measured
1 | QFAPSASAFFGMSRI | 0.1 | 0.4 | 0.2 | 0.4 | 0.1 | 0.2 | 0.1 | 0.4 | 0.2 | 0.6 | 0.7 | 0.4 | 0.5 | 0.3 | 0.1 | 0.3 | – | – | – | – | Binding of serum 6 to linear peptides of protein N of SARS-CoV Urbani [2]: 0.1; Binding of serum 37 to linear peptides of protein N of SARS-CoV Urbani [2]: 0.4; Binding of serum 62 to linear peptides of protein N of SARS-CoV Urbani [2]: 0.4; Binding of serum London to linear peptides of protein N of SARS-CoV Urbani [2]: 0.4; Binding of serum SARS-green to linear peptides of protein N of SARS-CoV Urbani [2]: 0.1; Binding of serum SARS-yellow to linear peptides of protein N of SARS-CoV Urbani [2]: 0.5; Control Serum Blood-Bank Looped peptides [3]: 0.6; Control serum Blood-bank linear peptides [3]: 0.7; Control serum LUMC linear peptides [3]: 0.5; Control serum LUMC looped peptides [3]: 0.6
2 | EQTQGNFGDQDLIRQ | 0.2 | 0.0 | – | 0.3 | – | 0.1 | – | 0.4 | 0.3 | 0.2 | 0.3 | 0.3 | 1.3 | 0.3 | 0.1 | 0.0 | 0.6 | 1.0 | 1.0 | 0.6 | Recognition of the peptide by sera of SARS-CoV infected individuals, and form (linear, looped/cyclic) in which it is recognized [2]: recognized in linear form
3 | ELRFPRGQGVPINTN | 0.1 | 0.4 | 0.2 | 0.4 | 0.1 | 0.3 | 0.3 | 0.5 | 0.3 | 0.7 | 0.6 | 0.5 | 0.7 | 0.4 | 0.1 | 0.2 | 0.7 | 0.6 | 0.8 | 0.7 | Binding of serum 6 to linear peptides of protein N of SARS-CoV Urbani [2]: 0.1; Binding of serum 37 to linear peptides of protein N of SARS-CoV Urbani [2]: 0.7; Binding of serum 62 to linear peptides of protein N of SARS-CoV Urbani [2]: 0.7; Binding of serum London to linear peptides of protein N of SARS-CoV Urbani [2]: 0.5; Binding of serum SARS-green to linear peptides of protein N of SARS-CoV Urbani [2]: 0.4; Binding of serum SARS-yellow to linear peptides of protein N of SARS-CoV Urbani [2]: 0.6
4 | PTDSTDNNQNGGRNG | 0.1 | 0.1 | 0.3 | 0.3 | 0.2 | 0.2 | 0.3 | 0.3 | 0.2 | 0.5 | 0.3 | 0.4 | 0.4 | 0.5 | 0.1 | 0.2 | 0.5 | 1.0 | 0.8 | 0.4 | Binding of serum 6 to linear peptides of protein N of SARS-CoV Urbani [2]: 0.2; Binding of serum 37 to linear peptides of protein N of SARS-CoV Urbani [2]: 1.2; Binding of serum 62 to linear peptides of protein N of SARS-CoV Urbani [2]: 0.8; Binding of serum London to linear peptides of protein N of SARS-CoV Urbani [2]: 0.7; Binding of serum SARS-green to linear peptides of protein N of SARS-CoV Urbani [2]: 0.6; Binding of serum SARS-yellow to linear peptides of protein N of SARS-CoV Urbani [2]: 0.7
5 | QGTTLPKGFYAEGSR | 0.1 | 0.6 | – | – | – | – | – | – | – | – | – | – | – | – | 0.1 | 0.2 | 0.7 | 0.8 | 0.7 | 0.7 | –
